Data published in patent publication US10639301B2 (Commissariat a L'Energie Atomique et Aux Energies …, priority 2013, dated 2020).
“Also recorded” adds a separate entry of the source.

What was measured:
[1] = test system: cardiac myocyte cell pairs; conditions: cardiac myocyte cell pairs (Daleau et al, 1998); cited from earlier work
RIN cells = experiment: Toxicity analysis, cell viability by WST-1; assay type: cell-based, rat; conditions: RIN cells treated 4 hours, grown 24 h; at the dose inhibiting cerebral connexins
Method: Twenty thousand RIN were seeded in 100 μl of culture medium in 96-wells plates. After 48 h culture, cells were treated for 4 hours with previously identified chemical compounds at several concentrations. Cells were rinsed in PBS and grown 24 h in fresh medium. Cell viability was measured by using WST-1 (Roche).

Cx32 = biological target: T1, Cx32 (Homo sapiens, UniProt P08034); experiment: Dye transfer (cell-parachute) gap junction assay, Rin-Cx32 cells; assay type: cell-based; conditions: flecainide racemate 70, 140 or 280 μM, 4 hours, flow cytometry
T1 construct: expressed in transfected cells; host or cells: rat insulinoma RIN cell line (Rin-Cx32), pcDNA3.1/V5-His-TOPO, geneticin-selected
Method: (§1) The rat insulinoma RIN cell line, deficient in GJIC (del Corsso et al, 2006), was grown in OptiMem medium, supplemented with 10% fetal calf serum. GJB6 (Cx30), GJB1 (Cx32), GJB2 (Cx26), GJA5 (Cx40) and GJA1 (Cx43) open reading frames were amplified from human cDNA. The open reading frames were cloned in pcDNA3.1/V5-His-TOPO (Invitrogen). Cells were transfected using Lipofectamine and further selected using geneticin.
(§2) Cells were seeded and loaded with two fluorochromes, calcein acetoxymethyl ester, a gap junction permeable dye, and Vybrant Dil, a membrane lipophilic dye. […] Flow cytometry was conducted on a FACScan. Inhibition was quantified as the relative number of receiver cells that gained fluorescence to the total number of receiver cells (non GJ-mediated dye transfer was then substracted to these ratio based on connexin non-expressing RIN cells, defined at background dye transfer ratio). This ratio of cellular coupling was then normalized, after each treatment, on the vehicle one.

Cx30 = biological target: T2, Cx30 (Homo sapiens, UniProt O95452); experiment: Dye transfer (cell-parachute) gap junction assay, Rin-Cx30 cells; assay type: cell-based; conditions: flecainide racemate 70, 140 or 280 μM, 4 hours, flow cytometry
T2 construct: expressed in transfected cells; host or cells: rat insulinoma RIN cell line (Rin-Cx30), pcDNA3.1/V5-His-TOPO, geneticin-selected
Method: as §1, §2

narcoleptic Ox-/- mice [2] = experiment: DREM cataplectic-like episodes in narcoleptic orexin knockout mice; assay type: in vivo; conditions: oral
mice [3] = experiment: Locomotor activity by video tracking; assay type: in vivo; conditions: oral
Method: Locomotor activity is evaluated by video tracking. Videos have been analyzed using Ethovision XT software (Noldus®).*: p<0.01 in a Two-Way ANOVA analysis

Cx43 = biological target: T3, Cx43 (Homo sapiens, UniProt P17302); experiment: Dye transfer (cell-parachute) gap junction assay, Rin-Cx43 cells; assay type: cell-based; conditions: flecainide racemate 70, 140 or 280 μM, 4 hours, flow cytometry
T3 construct: expressed in transfected cells; host or cells: rat insulinoma RIN cell line (Rin-Cx43), pcDNA3.1/V5-His-TOPO, geneticin-selected
Method: as §1, §2

mice [4] = experiment: T-maze alternating sequential test (spatial working memory); assay type: in vivo; conditions: intraperitoneal
From the text: The alternating sequential test is widely used to assess spatial working memory in mice (Beracochea & Jaffard, 1987). Spontaneous alternation is the innate tendency of rodents to alternate their choices to entry into the compartments of arrival of a T-maze device, over successive trials. To alternate during a given trial N, the animal must remember the choice made selectively in test N−1, so the decline in alternating will reflect the phenomenon of oblivion. The response in alternating is performance measure. Sequential alternating assesses more specifically the sensitivity to interference, a major factor in oblivion.
The experiment takes place in a T-maze (50 cm×10 cm×25 cm). All the subjects were given 7 successive trials separated by a 120-s intertrial interval. To begin a trial, the mouse was placed in the start box for 120 s before the door to the stem was opened. When the subject entered one of the goal arms, the door to that arm was closed. The chosen arm and the time that elapsed between opening the door and the arrival to the end of the chosen arm (task achievement time) were registered. Following a 30-s confinement period (fixed and invariant) in the chosen arm, the animal was removed and placed in the start box for a new trial. Between each test, the unit is cleaned with a cloth soaked in water and alcohol to avoid olfactory detection. […]

[5] = test system: Wild-type C57bl/6 male mice; experiment: Wake duration by polysomnographic analysis; assay type: in vivo; conditions: oral
From the text: Wild-type C57bl/6 male mice (n=9/groups) were implanted with EEG/EMG/EOG electrodes for polysomnographic analyses. […] Here the inventors represented the duration of wake during the first three hours (after a one-hour period post-administration). **: p<0.01 in a One-Way ANOVA analysis.

Cx26 = biological target: T4, Cx26 (Homo sapiens, UniProt P29033); experiment: Dye transfer (cell-parachute) gap junction assay, Rin-Cx26 cells; assay type: cell-based; conditions: flecainide racemate 70, 140 or 280 μM, 4 hours, flow cytometry
T4 construct: expressed in transfected cells; host or cells: rat insulinoma RIN cell line (Rin-Cx26), pcDNA3.1/V5-His-TOPO, geneticin-selected
Method: as §1, §2

Cx40 = biological target: T5, Cx40 (Homo sapiens, UniProt P36382); experiment: Dye transfer (cell-parachute) gap junction assay, Rin-Cx40 cells; assay type: cell-based; conditions: flecainide racemate 70, 140 or 280 μM, 4 hours, flow cytometry
T5 construct: expressed in transfected cells; host or cells: rat insulinoma RIN cell line (Rin-Cx40), pcDNA3.1/V5-His-TOPO, geneticin-selected
Method: as §1, §2

[6] = poor metabolizers (PM) of sparteine/debrisoquine, 50 mg racemic flecainide acetate (Gross et al, 1989); cited from earlier work
narcoleptic Ox-/- mice [7] = conditions: orexin KO mouse model, literature; cited from earlier work
[8] = flecainide racemate 1 mg/kg alone

T2 sequence (O95452 whole entry): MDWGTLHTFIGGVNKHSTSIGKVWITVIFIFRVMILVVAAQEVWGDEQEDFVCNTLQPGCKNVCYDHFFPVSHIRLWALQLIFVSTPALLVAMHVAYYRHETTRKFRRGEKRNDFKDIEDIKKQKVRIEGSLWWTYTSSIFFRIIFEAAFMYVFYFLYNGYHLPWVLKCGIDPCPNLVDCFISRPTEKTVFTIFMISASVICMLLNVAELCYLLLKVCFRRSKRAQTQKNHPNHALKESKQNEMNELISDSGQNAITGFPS
T3 sequence (P17302 2-382 limits assumed): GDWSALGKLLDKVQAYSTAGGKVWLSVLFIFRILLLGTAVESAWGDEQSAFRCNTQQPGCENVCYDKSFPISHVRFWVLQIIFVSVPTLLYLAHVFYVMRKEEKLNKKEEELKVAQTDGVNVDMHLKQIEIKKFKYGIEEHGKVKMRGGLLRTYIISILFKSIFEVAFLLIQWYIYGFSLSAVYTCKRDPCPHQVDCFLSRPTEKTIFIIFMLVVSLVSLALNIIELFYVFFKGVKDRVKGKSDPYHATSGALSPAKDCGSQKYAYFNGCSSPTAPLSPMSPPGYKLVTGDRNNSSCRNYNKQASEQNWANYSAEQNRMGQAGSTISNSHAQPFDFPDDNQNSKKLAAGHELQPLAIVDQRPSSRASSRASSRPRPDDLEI
T5 sequence (P36382 whole entry): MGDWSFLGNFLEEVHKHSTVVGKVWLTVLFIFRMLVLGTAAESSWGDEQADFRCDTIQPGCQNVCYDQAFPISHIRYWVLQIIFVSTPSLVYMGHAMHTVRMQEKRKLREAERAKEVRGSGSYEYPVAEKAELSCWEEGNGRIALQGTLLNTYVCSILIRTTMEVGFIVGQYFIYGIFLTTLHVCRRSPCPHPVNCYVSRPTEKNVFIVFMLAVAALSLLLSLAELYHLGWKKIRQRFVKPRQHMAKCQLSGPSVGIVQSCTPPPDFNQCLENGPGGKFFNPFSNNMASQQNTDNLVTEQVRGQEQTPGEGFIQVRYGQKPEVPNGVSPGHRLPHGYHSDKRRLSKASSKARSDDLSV
T1 sequence (P08034 whole entry): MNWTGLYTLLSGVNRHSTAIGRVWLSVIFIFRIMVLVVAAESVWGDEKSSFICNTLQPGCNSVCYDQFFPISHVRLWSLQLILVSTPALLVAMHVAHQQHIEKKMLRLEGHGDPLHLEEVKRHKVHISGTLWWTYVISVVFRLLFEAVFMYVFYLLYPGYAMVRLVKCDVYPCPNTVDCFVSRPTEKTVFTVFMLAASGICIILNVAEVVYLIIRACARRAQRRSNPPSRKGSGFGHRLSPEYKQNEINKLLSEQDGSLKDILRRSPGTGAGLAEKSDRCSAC

## O=C(NCC1CCCCN1)c1cc(OCC(F)(F)F)ccc1OCC(F)(F)F (racemic) [flecainide, N-(piperidin-2-ylmethyl)-2,5-bis(2,2,2-trifluoroethoxy) benzamide]
[1]
  Influence on junctional resistance: not to influence
RIN cells
  Cell viability (WST-1): no cell toxicity
Cx32
  Inhibition of gap junction dye transfer (cellular coupling): inhibits all the tested isoforms
Cx30
  Inhibition of gap junction dye transfer (cellular coupling): inhibits all the tested isoforms; also recorded: higher inhibition levels
Narcoleptic Ox-/- mice [2]; [8]
  DREM cataplectic-like phenotype, flecainide alone: no effect
Mice [3]; [8]
  Locomotor effect, flecainide alone: devoid of any own locomotor effect
Mice [3]; modafinil 64 mg/kg + flecainide 1 mg/kg
  Duration of effect of modafinil on locomotor activity with flecainide added: significantly increases the duration of effect of modafinil
Cx43
  Inhibition of gap junction dye transfer (cellular coupling): inhibits all the tested isoforms; also recorded: higher inhibition levels
Mice [4]; [8]
  Cognitive (promnesiant) effect, flecainide alone: no own cognitive effect
Mice [4]; modafinil 64 mg/kg + flecainide racemate 1 mg/kg
  Promnesiant activity of modafinil (percentage of alternation) with flecainide added: significantly potentiates
[5]; flecainide 1 mg/kg alone
  Wake duration, flecainide alone: devoid of own effect on wake duration
[5]; modafinil 32 mg/kg + flecainide racemate 1 mg/kg, first three hours after one-hour period
  Waking effect of modafinil (wake duration) with flecainide added: significantly increases
Cx26
  Inhibition of gap junction dye transfer (cellular coupling): inhibits all the tested isoforms; also recorded: higher inhibition levels
Cx40
  Inhibition of gap junction dye transfer (cellular coupling): inhibits all the tested isoforms

## O=C(NC[C@H]1CCCCN1)c1cc(OCC(F)(F)F)ccc1OCC(F)(F)F [R-flecainide, (R)—N-(piperidin-2-ylmethyl)-2,5-bis(2,2,2-trifluoroethoxy)benzamide]
[6]
  half-life: 12.9 h
  urinary recovery: 15.6 ± 3.7 mg
Narcoleptic Ox-/- mice [2]; modafinil 64 mg/kg + enantiomer 1 mg/kg, R- compared with S-flecainide
  DREM cataplectic-like phenotype, flecainide enantiomer combined with modafinil: more efficient

## O=C(NC[C@@H]1CCCCN1)c1cc(OCC(F)(F)F)ccc1OCC(F)(F)F [S-flecainide, (S)—N-(piperidin-2-ylmethyl)-2,5-bis(2,2,2-trifluoroethoxy)benzamide]
[6]
  half-life: 9.8 h
  urinary recovery: 12.0 ± 3.7 mg

## NC(=O)C[S+]([O-])C(c1ccccc1)c1ccccc1 (stereo not drawn) [modafinil, 2-[(diphenylmethyl)sulfinyl] acetamide]
Narcoleptic Ox-/- mice [2]; modafinil 64 mg/kg alone
  DREM cataplectic-like phenotype, modafinil alone: do not have any significant effect
Narcoleptic Ox-/- mice [7]
  DREM episodes under modafinil (Lin et al, 2008): allows DREM episodes to persist
